Assay results published in article PMC8637440, “Structural Modifications Yield Novel Insights Into the Intriguing Pharmacodynamic Potential of Anti-inflammatory Nitro-Fatty Acids” (Frontiers in Pharmacology, 2021).

Target: T1, r5LO-wt (Homo sapiens, UniProt P09917)
T1 sequence (P09917 1-674): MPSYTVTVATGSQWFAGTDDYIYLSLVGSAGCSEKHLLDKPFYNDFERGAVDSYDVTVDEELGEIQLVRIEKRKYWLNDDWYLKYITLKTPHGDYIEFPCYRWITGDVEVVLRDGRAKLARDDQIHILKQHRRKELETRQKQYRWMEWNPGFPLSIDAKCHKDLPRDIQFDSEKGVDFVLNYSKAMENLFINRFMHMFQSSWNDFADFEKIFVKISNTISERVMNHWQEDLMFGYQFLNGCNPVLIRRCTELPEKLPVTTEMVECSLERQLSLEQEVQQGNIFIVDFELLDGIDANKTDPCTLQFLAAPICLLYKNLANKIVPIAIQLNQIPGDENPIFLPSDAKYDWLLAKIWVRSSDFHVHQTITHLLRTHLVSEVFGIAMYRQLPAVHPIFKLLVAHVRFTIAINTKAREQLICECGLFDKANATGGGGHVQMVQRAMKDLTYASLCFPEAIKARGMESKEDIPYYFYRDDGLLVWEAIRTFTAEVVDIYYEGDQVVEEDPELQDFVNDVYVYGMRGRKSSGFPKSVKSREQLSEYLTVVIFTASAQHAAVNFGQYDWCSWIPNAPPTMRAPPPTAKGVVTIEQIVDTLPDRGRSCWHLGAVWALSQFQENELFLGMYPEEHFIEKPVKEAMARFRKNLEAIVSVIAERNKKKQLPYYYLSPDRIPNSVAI
Test: Recombinant 5-LO activity assay (5-HETE)
Format: biochemical
Protocol: 5-LO activity in intact cells was assayed by measuring LTB4 (leukotriene B4) and 5-HETE (5-hydroxyeicosatetraenoic acid) levels in the PMNL supernatants. Since PMNL preparations (purity >95%) contain eosinophils expressing 15-LO-1 as well as platelets, we also analyzed the effects of NFA on the concomitant formation of […] and 12-(S)-HETE. […] Recombinant 5-LO enzyme activity was assessed by the determination of 5-HETE levels representing a direct product assay. In the cell-based LO activity assays, 5 × 10^6 cells per ml PBS/glucose were transferred to 5 ml glass tubes containing 1 mM CaCl2 and stored on ice. […] Subsequently, the cells were stimulated with calcium ionophore A23187 (2.5 µM) and arachidonic acid (AA, 20 µM) for an additional 10 min at 37°C. Recombinant 5-LO activity assays were carried out using 3 µg r5LO-wt enzyme. The enzyme was diluted in PBS/EDTA/ATP, transferred into 5-ml glass tubes, and stored on ice. […] The samples were then pre-heated at 37°C in a water bath and subsequently stimulated with 1 mM CaCl2 and 20 µM AA for 10 min at 37°C. The reaction was stopped by placing the glass tubes on ice. The supernatants were transferred to 1.5 ml reaction tubes and stored at −80°C before LC-MS (liquid chromatography and mass spectrometry) analysis of LTB4 and HETEs as described in 2.6 at the Institute of Pharmacology, Goethe University, University Hospital, Germany.
The lipid mediators LTB4, hydroxyeicosatetraenoic acids, 5(S)-HETE, 12(S)-HETE, 15(S)-HETE and 20-HETE were analyzed using liquid chromatography tandem-mass spectroscopy (LC-MS/MS). The LC-MS/MS system consisted of a 5500 QTrap mass spectrometer (Sciex, Darmstadt, Germany), operating in negative ESI mode, an Agilent 1200 HPLC system (Agilent, Waldbronn, Germany) and an HTC Pal autosampler (Chromtech, Idstein, Germany).
Suppl. Figure 3: Inhibition of 5-LO derived 5-HETE production by NFA with (A) different carbon chain lengths and (B) different Michael acceptor positions using the r5LO-wt assay. r5LO-wt (3 µg) in PBS/EDTA/ATP buffer was preincubated with the compounds or the vehicle control DMSO (0.1%) for 15 min at 4°C, preheated at 37°C for 30 sec, and subsequently stimulated with 1 mM CaCl 2 and 20 µM AA for another 10 min at 37°C.
5-HETE activity was analyzed by LC-MS. Data are presented as the percent of the control mean ± SD, n = 3–6. AA , arachidonic acid; ATP, adenosine triphosphate; DMSO, dimethyl sulfoxide; EDTA, ethylenediaminetetraacetate; HETE, hydroxyeicosatetraenoic acid; NFA, nitro-fatty acids; PBS, phosphate-buffered saline . […]

[1] = 3 µg r5LO-wt, 15 min on ice, 1 mM CaCl2 + 20 µM AA, n.i. = no inhibition observed

Row | SMILES | IC50 [1] | r5LO-wt 5-HETE IC50 [1] | effect on product formation by recombinant 5-LO (at concentrations of >10 µM)
1 | CCC=C(CCCCCCCC(=O)O)[N+](=O)[O-] [12.9.9, 9-nitro-dodec-9-enoic acid] | 75500 ± 8100 nM | – | –
2 | CCCCC=C(CCCCCCCC(=O)O)[N+](=O)[O-] [14.9.9, 9-nitro-tetradec-9-enoic acid] | 17900 ± 1600 nM | – | –
3 | CCCCCCC=C(CCCCCCCC(=O)O)[N+](=O)[O-] [16.9.9, 9-nitro-hexadec-9-enoic acid] | 3300 ± 1200 nM | – | –
4 | CCCCCCCCCCCCCC=C(CCC(=O)O)[N+](=O)[O-] [18.4.4, 4-nitro-octadec-4-enoic acid] | 400 ± 1200 nM | – | –
5 | CCCCCCCCC=C(CCCCCCCC(=O)O)[N+](=O)[O-] [18.9.9, 9-nitro-octadec-9-enoic acid] | 1100 ± 1200 nM | – | –
6 | CCCCCCCCCCC=C(CCCCCCCC(=O)O)[N+](=O)[O-] [20.9.9, 9-nitro-eicos-9-enoic acid] | 900 ± 1300 nM | – | –
7 | CCCCCCCC/C=C\CCCCCCCC(=O)O [OA, oleic acid, reference compound] | – | n.i. | slight inhibitory effect

Second part, led by results:

Row | IC50 [1] | SMILES | r5LO-wt 5-HETE IC50 [1] | effect on product formation by recombinant 5-LO (at concentrations of >10 µM)
8 | 400 ± 1100 nM | CCCCCCCCCCCCC=C(CCCC(=O)O)[N+](=O)[O-] [18.5.5, 5-nitro-octadec-5-enoic acid] | – | –
9 | 1000 ± 1200 nM | CCCCCCCCCCCC=C(CCCCC(=O)O)[N+](=O)[O-] [18.6.6, 6-nitro-octadec-6-enoic acid] | – | –
10 | 1100 ± 1200 nM | CCCCCCCCCCCC(=CCCCCC(=O)O)[N+](=O)[O-] [18.6.7, 7-nitro-octadec-6-enoic acid] | – | –
11 | 600 ± 1300 nM | CCCCCCCCCCC=C(CCCCCC(=O)O)[N+](=O)[O-] [18.7.7, 7-nitro-octadec-7-enoic acid] | – | –
12 | 2200 ± 1200 nM | CCCCCCCCCC=C(CCCCCCC(=O)O)[N+](=O)[O-] [18.8.8, 8-nitro-octadec-8-enoic acid] | – | –
13 | 1900 ± 1200 nM | CCCCCCCCCC(=CCCCCCCC(=O)O)[N+](=O)[O-] [18.8.9, 9-nitro-octadec-8-enoic acid] | – | –
14 | 1600 ± 1300 nM | CCCCCCCCC(=CCCCCCCCC(=O)O)[N+](=O)[O-] [18.9.10, 10-nitro-octadec-9-enoic acid] | – | –
15 | 1600 ± 1300 nM | CCCCCCCC=C(CCCCCCCCC(=O)O)[N+](=O)[O-] [18.10.10, 10-nitro-octadec-10-enoic acid] | – | –
16 | 800 ± 1200 nM | CCCCCCC=C(CCCCCCCCCC(=O)O)[N+](=O)[O-] [18.11.11, 11-nitro-octadec-11-enoic acid] | – | –
